{
  "source": "patent US20190211020A1",
  "about": "(Agency for Science, Technology and Research, priority 2012, published 2019)",
  "key": {"[1]": {"system": "eIF4E Ser209 phosphorylation in Hela cells", "assay": "MNK cell-based assay (AlphaScreen SureFire, eIF4E Ser209 phosphorylation)", "details": "Homo sapiens; eIF4E Ser209 phosphorylation, Hela cells, 2 hours; read-out: IC50 Hela", "outline": "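Hela cells (30,000/well) exposed to test compound in serum-free medium for 2 h at 37 °C, then lysed. Phospho-Ser209 eIF4E quantified by AlphaScreen SureFire; IC50 obtained by non-linear regression of signal versus log compound concentration.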"}, "[2]": {"system": "MV-4-11, P116.c139 and D1.1 cell lines", "assay": "Cell cytotoxicity assay, the three test cell lines taken together", "assay_type": "cell-based", "details": "Homo sapiens, MV4-11; regardless of the treatment duration (48 hours or 6 days)", "procedure": "Cancer cell lines, MV-4-11 (leukemia), P116.c139 (acute T cell leukemia) and D1.1 (acute T cell leukemia), were purchased from ATCC and cultured according to supplier's recommendations. K562 cells (myelogenous leukemia) over-expressing eIF4E, were also used for the cytotoxicity assay. For cells treated for 48 hours, 5000 cells were seeded in 70 μl of growth medium in black, flat-bottom 96-well plate. For cells treated for six days, 1000 cells were seeded in 70 μl of growth medium in black, flat-bottom 96-well plate. […] 50 μl of the diluted compounds was added to the cells and incubated at 37° C. in 5% CO2. After 48 hours or six days treatment, cell viability was determined by CellTiter-Glo Luminescent Cell Viability Assay (Promega, Madison, Wis.). 120 μl of the reagent was added to the cells and luminescence was measured using Tecan Safire Reader. Data was analysed with Graphpad Prism software and the figures represented indicate the half maximal inhibitory concentration (IC50). Error bars denote standard deviation (SD)."}, "[3]": {"system": "eIF4E phosphorylation in K562 cells", "assay": "Western blot of eIF4E phosphorylation in K562 cells", "assay_type": "cell-based", "details": "various concentrations, 24 h", "procedure": "(§1) K562 cell line was obtained from the ATCC, and grown in RPMI supplemented with 10% FCS, L-glutamine, and penicillin/streptomycin.\n(§2) Exponentially growing cells were plated at 2×10^5 cells/ml, and whole cell lysate processed for western blot analysis using antibodies recognizing eIF4E, phospho-eIF4E (Cell signaling Technology),"}, "BCR-ABL": {"target": "T1, BCR-ABL (Homo sapiens, UniProt P00519)", "T1 construct": "host or cells: K562; the other entry of the earlier key: BCR (P11274, Breakpoint cluster region protein)", "T1 sequence (P00519 with tags, fused parts or gaps)": "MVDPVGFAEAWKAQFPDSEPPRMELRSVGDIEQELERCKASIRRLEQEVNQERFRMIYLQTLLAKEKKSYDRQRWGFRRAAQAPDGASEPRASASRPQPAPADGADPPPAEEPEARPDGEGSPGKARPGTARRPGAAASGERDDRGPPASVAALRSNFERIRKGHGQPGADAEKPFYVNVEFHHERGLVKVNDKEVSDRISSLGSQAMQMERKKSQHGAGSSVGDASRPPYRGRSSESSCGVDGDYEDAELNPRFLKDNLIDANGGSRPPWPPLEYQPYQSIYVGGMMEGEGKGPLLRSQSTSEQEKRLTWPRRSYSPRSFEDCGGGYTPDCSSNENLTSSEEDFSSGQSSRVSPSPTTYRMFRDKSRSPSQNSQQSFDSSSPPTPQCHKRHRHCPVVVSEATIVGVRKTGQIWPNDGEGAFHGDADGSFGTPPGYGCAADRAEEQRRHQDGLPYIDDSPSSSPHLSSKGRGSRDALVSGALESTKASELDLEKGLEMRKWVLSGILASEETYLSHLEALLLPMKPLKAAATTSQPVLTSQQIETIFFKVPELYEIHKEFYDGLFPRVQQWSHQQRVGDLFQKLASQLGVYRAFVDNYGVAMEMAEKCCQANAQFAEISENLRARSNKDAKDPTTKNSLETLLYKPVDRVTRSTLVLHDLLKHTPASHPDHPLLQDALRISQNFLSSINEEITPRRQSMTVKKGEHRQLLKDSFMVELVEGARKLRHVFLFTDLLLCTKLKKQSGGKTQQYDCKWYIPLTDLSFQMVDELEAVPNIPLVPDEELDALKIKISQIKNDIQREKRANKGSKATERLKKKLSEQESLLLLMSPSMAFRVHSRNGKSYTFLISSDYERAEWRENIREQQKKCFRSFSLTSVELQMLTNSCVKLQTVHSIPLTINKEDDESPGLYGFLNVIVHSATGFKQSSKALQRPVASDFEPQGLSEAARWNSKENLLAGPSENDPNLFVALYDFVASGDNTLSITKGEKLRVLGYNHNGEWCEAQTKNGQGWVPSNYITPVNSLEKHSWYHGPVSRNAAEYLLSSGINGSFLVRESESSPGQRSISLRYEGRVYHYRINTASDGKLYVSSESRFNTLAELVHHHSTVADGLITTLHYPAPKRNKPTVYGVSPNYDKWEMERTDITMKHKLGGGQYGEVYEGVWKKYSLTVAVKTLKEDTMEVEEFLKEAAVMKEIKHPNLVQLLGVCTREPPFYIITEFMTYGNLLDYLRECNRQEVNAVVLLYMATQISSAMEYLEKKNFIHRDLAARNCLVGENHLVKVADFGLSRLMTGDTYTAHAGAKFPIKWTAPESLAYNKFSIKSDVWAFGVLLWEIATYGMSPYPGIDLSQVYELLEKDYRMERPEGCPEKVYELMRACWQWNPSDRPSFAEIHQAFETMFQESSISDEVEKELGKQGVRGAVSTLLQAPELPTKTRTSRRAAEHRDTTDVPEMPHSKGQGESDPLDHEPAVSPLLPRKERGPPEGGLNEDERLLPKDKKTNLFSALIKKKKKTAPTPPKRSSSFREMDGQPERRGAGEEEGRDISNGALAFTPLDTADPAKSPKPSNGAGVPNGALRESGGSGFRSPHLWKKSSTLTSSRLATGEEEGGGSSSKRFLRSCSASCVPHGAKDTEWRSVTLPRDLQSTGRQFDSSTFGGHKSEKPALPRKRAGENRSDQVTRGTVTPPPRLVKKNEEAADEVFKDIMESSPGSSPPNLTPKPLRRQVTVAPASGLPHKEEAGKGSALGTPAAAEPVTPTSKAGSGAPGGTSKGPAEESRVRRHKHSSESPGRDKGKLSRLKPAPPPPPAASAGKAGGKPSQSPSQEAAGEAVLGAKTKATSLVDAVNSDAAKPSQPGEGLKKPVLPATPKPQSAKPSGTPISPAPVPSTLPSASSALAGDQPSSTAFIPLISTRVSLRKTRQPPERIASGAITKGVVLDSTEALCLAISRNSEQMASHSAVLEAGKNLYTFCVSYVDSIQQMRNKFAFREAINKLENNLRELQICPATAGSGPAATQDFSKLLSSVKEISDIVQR", "assay": "Western blot of CrK1 phosphorylation (BCR-ABL activity) in K562 cells", "assay_type": "cell-based", "procedure": "as §1, §2"}, "[4]": {"system": "nuclear active beta-catenin in BC-CML primary cells", "assay": "Immunofluorescence of nuclear active beta-catenin in BC-CML primary cells", "assay_type": "cell-based, human", "from_the_text": "Cord Blood (CB) samples were purchased from the Singapore Cord Blood bank. CML samples were the Singapore General Hospital after signed informed consent under local IRB-approved procedures. MNCs were obtained using Ficoll separation, and CD34^+ cells selected by immunomagnetic beads (Miltenyi Biotech, Germany).\nCells (1×10^5) were cytospun onto glass slides, fixed with 4% paraformaldehye, and stained with mouse monoclonal antibodies against activated β-catenin (clone 8E7, Millipore, UK), or rabbit monoclonal antibodies against phospho-eIF4E S209 (EP2151Y, Abcam, UK). Slides were then stained with either PE-conjugated anti-mouse or FITC-conjugated anti-rabbit antibodies. Images were obtained with the use of a fluorescence microscope (Olympus IX71S1F3) at 40× magnification."}, "[5]": {"system": "eIF4E phosphorylation in cerebellar neurons in brain sections", "assay": "Immunoblot of phospho-eIF4E in mouse cerebellar brain slices", "details": "40 μM CGP57380 or 50 nM ETC7168 for 45 mins", "procedure": "For biochemical analyses mice were sacrificed by CO2 inhalation, the cerebellum dissected and rapidly placed in a vibratome chamber and sectioned at 300 μm in cold oxygenated aCSF (in mM: 125 NaCl, 2.5 KCl, 1 MgCl2, 2 CaCl2, 1.25 NaH2PO4, 20 Glucose, 26 NaHCO3, 95% O2/5% CO2). Slices obtained were maintained at 33° C. in oxygenated aCSF and treated with 40 μM CGP57380 or 50 nM ETC7168 for 45 mins and tissues were subsequently snap frozen in liquid nitrogen. Tissues were lysed in 25 mM Tris-HCl, 150 mM NaCl, 1% Triton, 0.2% SDS, 5 mM EDTA, 2 mM DTT, 1 mM NaF, 1 mM Na3VO4 containing protease inhibitor cocktail. The soluble fractions were analyzed by immunoblotting with primary antibodies for 24 hrs at 4° C. followed by detection with secondary antibodies for enhanced chemoluminescent detection. […] Behavioral testing was performed using a well-accepted test for autism that consists of quantitative analysis of ultrasonic vocalizations emitted by male mice exposed to females in estrous^75. […] Prior to testing, the estrous cycle of each female mouse was assessed and only females in estrous were kept for testing. […] Subsequently a female in estrous was introduced in the arena, and ultrasonic vocalizations were recorded for 3 min using the Avisoft system (Avisoft Bioacoustics) with a frequency bandwidth of 30 kHz to 100 kHz. The number and length of ultrasonic vocalizations were quantified. […]"}},
  "note": "Entries after “also recorded” stand apart in the source; their conditions may differ.",
  "data": [
    {"smiles": "N#Cc1ccc(-c2cnc3ccc(-c4ccc(C(=O)N5CCOCC5)cc4)nn23)cc1", "note": "[Example 62, 4-(6-(4-(morpholine-4-carbonyl)phenyl)imidazo[1,2-b]pyridazin-3-yl)benzonitrile]", "values": [
      {"measurement": "IC50", "setting": "[1]", "result": "< 1000", "unit": "nM"},
      {"measurement": "IC50", "setting": "[2]", "result": "≤ 2000", "unit": "nM"},
      {"measurement": "eIF4E phosphorylation in K562 (BC-CML cell line), Western blot", "setting": "[3]", "result": "prevent eIF4E phosphorylation; also recorded: decrease in eIF4E phosphorylation"},
      {"measurement": "BCR-ABL activity (phosphorylation of CrK1) in K562 cells", "setting": "BCR-ABL", "result": "decrease in BCR-ABL activity"},
      {"measurement": "nuclear active beta-catenin in BC-CML primary cells, immunofluorescence", "setting": "[4]", "result": "decrease in nuclear beta-catenin accumulation"},
      {"measurement": "eIF4E phosphorylation in cerebellar brain sections", "setting": "[5]", "result": "inhibit eIF4E phosphorylation"}
    ]}
  ]
}
